Measured values reported in publication PMC6152131, “Pharmacokinetic Study of Biotransformation Products from an Anxiolytic Fraction of Tilia americana” (Molecules : A Journal of Synthetic Chemistry and Natural …, 2017).

Assays:
[1] = Stability of flavonoids and biotransformation products in mouse plasma under different handling conditions; format: in vitro ADME, mice; conditions: for Accuracy Bias 0 h / Observed Conc. 0 h / Accuracy Bias 8 h / Observed Conc. 8 h / Accuracy Bias 24 h / Observed Conc. 24 h: room temperature (25 °C); for Observed Conc. 0 h / Observed Conc. 8 h / Observed Conc. 24 h / Observed Conc. Autosampler (4 °C; 8 h) / Observed Conc. Long-term (−70 °C; 1 month): n = 6; for Accuracy Bias Autosampler (4 °C; 8 h) / Accuracy Bias Long-term (−70°C; 1 month) / Observed Conc. Autosampler (4 °C; 8 h) / Observed Conc. Long-term (−70 °C; 1 month): storage stability
Description: (§1) Plasma dried pulverized samples were extracted with methanol (HPLC grade, Merck). The extracts were filtered with Teflon membrane dimensions 0.45 μm by 13 mm (Millex®-LCR); 20 μL of each filtered sample was injected into the HPLC equipment. The measurements were performed in a (Waters corporation, Milford, CT, USA) 2695 HPLC with a diode array detector (Waters 2996) and processed with the Empower Pro 1.0 software. A Chromolith Performance® RP-18e 100 × 4.6 mm (Merck KGaA, Darmstadt, Germany) was used. The mobile phase consisted of a mixture of acetonitrile and water with the proportion 55:45 and a flow rate of 1 mL/min. The concentrations of the flavonoids and the biotransformation products were obtained by comparison with a pre-built calibration curve at λ = 220 nm.
[…] The investigation enclosed here expected manipulation conditions during all the sample storage and process periods, which included the stability data from the freeze/thaw, bench-top, autosampler, and long–term stability tests.
For all stability studies, fresh QC samples were evaluated by using a freshly prepared standard curve for the measurements. The concentrations obtained from all the stability studies were compared with the fresh QC samples, and the percentage concentration deviation was calculated. The analytes were considered stable in the mouse plasma when the concentration difference between the freshly prepared samples and the stability samples was less than 15%.

[2] = Plasma concentration after a single oral dose of the anxiolytic fraction (HPLC); format: in vivo, ICR mice; conditions: mouse, plasma, ICR mice, n = 10
Description: Eleven groups of ten animals each were randomly formed. All animals were orally administered with 200 mg/kg of the active fraction. Animals were anaesthetized with ether, and blood samples were obtained from the retroorbital sinus with a heparinized capillary, each group was examined at different times (0, 5, 10, 15, 30, 60, 120, 240, 480, 720, and 1440 min) after the active fraction was administered. […] Then the plasma samples were frozen and lyophilized. The dry plasma was subsequently used to extract and measure the concentration of the flavonoids and biotransformation products.
as §1
(§2) To evaluate the suitability of the assay for the pharmacokinetic studies, 200 mg/kg of the active fraction was orally administered to the animals. Ten animals were used in each group at different times (0, 5, 10, 15, 30, 60, 120, 240, 480, 720, and 1440 min). Pharmacokinetic calculations were performed using the observed data. All data was subsequently processed using the PKSolver add-in program for Microsoft Excel written in Visual Basic for Applications. All values obtained were expressed in mean ± standard deviation.

[3] = Pharmacokinetic analysis, two-compartment model (PKSolver); format: in vivo, ICR mice
Description: The data shown in Table 2 were applied to the program PKSolver. After a single oral administration of 200 mg/kg of the anxiolitic fraction of T. americana, the behavior of the concentration-time data allowed us to determine the main pharmacokinetic parameters under a two-compartment model (Table 3), and the same program provided the graphical behavior of the variables and the adjustment to the two-compartment model.
as §2
For the pharmacokinetic assay, the selection was made either from a one-compartment or a two-compartment model, with the use of both the Akaike information criterion (AIC) and the Schwarz criterion (SC). Using these two criteria, one can select which model is more suited to being adjusted, to the point where it reaches the lowest values of the AIC or SC criteria, which means that the chosen model is more parsimonious (less parameters required) and best fits the data (low error prediction).

[4] = high nominal conc. (7.00; 44.37; 4.50; 31.25 µg/mL)
[5] = low nominal conc. (1.75; 11.02; 1.12; 1.95 µg/mL)
[6] = medium nominal conc. (3.50; 22.18; 2.24; 7.81 µg/mL)
[7] = mouse, oral 200 mg/kg anxiolytic fraction, ICR mice plasma, two-compartment model
[8] = oral 200 mg/kg anxiolytic fraction, ICR mice plasma, two-compartment model
[9] = oral 200 mg/kg anxiolytic fraction, ICR mice plasma, two-compartment model, n = 10

Accuracy Bias 0 h ([1]; high nominal conc.): 1.88% | Observed Conc. 0 h ([1]; high nominal conc. (rutin 7.00; quercetin glucoside, quercitrin, tiliroside 44.37; kaempferol 4.50; m-HPAA, p-HPAA, DOPAC 31.25 µg/mL)): 31.40 ± 0.10 µg/mL | Accuracy Bias 0 h ([1]; low nominal conc.): 0.47% | Observed Conc. 0 h ([1]; low nominal conc. (rutin 1.75; quercetin glucoside, quercitrin, tiliroside 11.02; kaempferol 1.12; m-HPAA, p-HPAA, DOPAC 1.95 µg/mL)): 1.91 ± 0.2 µg/mL | Accuracy Bias 0 h ([1]; medium nominal conc.): 0.13% | Observed Conc. 0 h ([1]; medium nominal conc. (rutin 3.50; quercetin glucoside, quercitrin, tiliroside 22.18; kaempferol 2.24; m-HPAA, p-HPAA, DOPAC 7.81 µg/mL)): 7.80 ± 0.01 µg/mL | Accuracy Bias 8 h ([1]; high nominal conc.): 0.90% | Observed Conc. 8 h [1, 4]: 31.53 ± 0.19 µg/mL | Accuracy Bias 8 h ([1]; low nominal conc.): 2.23% | Observed Conc. 8 h [1, 5]: 1.91 ± 0.03 µg/mL | Accuracy Bias 8 h ([1]; medium nominal conc.): 2.18% | Observed Conc. 8 h [1, 6]: 7.98 ± 0.12 µg/mL | Accuracy Bias 24 h ([1]; high nominal conc.): 0.30% | Observed Conc. 24 h [1, 4]: 31.34 ± 0.07 µg/mL | Accuracy Bias 24 h ([1]; low nominal conc.): 2.73% | Observed Conc. 24 h [1, 5]: 1.90 ± 0.04 µg/mL | Accuracy Bias 24 h ([1]; medium nominal conc.): 0.09% | Observed Conc. 24 h [1, 6]: 7.82 ± 0.01 µg/mL | Accuracy Bias Autosampler (4 °C; 8 h) ([1]; high nominal conc.): 2.73% | Accuracy Bias Long-term (−70°C; 1 month) ([1]; high nominal conc.): 2.23% | Observed Conc. Autosampler (4 °C; 8 h) [1, 4]: 31.34 ± 0.07 µg/mL | Observed Conc. Long-term (−70 °C; 1 month) [1, 4]: 31.20 ± 0.19 µg/mL | Accuracy Bias Autosampler (4 °C; 8 h) ([1]; low nominal conc.): 0.09% | Accuracy Bias Long-term (−70°C; 1 month) ([1]; low nominal conc.): 0.90% | Observed Conc. Autosampler (4 °C; 8 h) [1, 5]: 1.93 ± 0.04 µg/mL | Observed Conc. Long-term (−70 °C; 1 month) [1, 5]: 1.92 ± 0.03 µg/mL | Accuracy Bias Autosampler (4 °C; 8 h) ([1]; medium nominal conc.): 0.30% | Accuracy Bias Long-term (−70°C; 1 month) ([1]; medium nominal conc.): 2.18% | Observed Conc. Autosampler (4 °C; 8 h) [1, 6]: 7.82 ± 0.01 µg/mL | Observed Conc. Long-term (−70 °C; 1 month) [1, 6]: 7.80 ± 0.12 µg/mL | concentration at 5 min ([2]; 5 min after single oral dose of 200 mg/kg of the anxiolytic fraction, ND = not detected): 4670 ± 270 ng/mL | concentration at 10 min ([2]; 10 min after single oral dose of 200 mg/kg of the anxiolytic fraction): 5060 ± 220 ng/mL | concentration at 15 min ([2]; 15 min after single oral dose of 200 mg/kg of the anxiolytic fraction): 4750 ± 290 ng/mL | concentration at 30 min ([2]; 30 min after single oral dose of 200 mg/kg of the anxiolytic fraction): 4520 ± 280 ng/mL | concentration at 60 min ([2]; 60 min after single oral dose of 200 mg/kg of the anxiolytic fraction): 4290 ± 130 ng/mL | concentration at 120 min ([2]; 120 min after single oral dose of 200 mg/kg of the anxiolytic fraction): 4170 ± 330 ng/mL | concentration at 240 min ([2]; 240 min after single oral dose of 200 mg/kg of the anxiolytic fraction): 4110 ± 230 ng/mL | concentration at 480 min ([2]; 480 min after single oral dose of 200 mg/kg of the anxiolytic fraction): 4040 ± 250 ng/mL | concentration at 720 min ([2]; 720 min after single oral dose of 200 mg/kg of the anxiolytic fraction): 3940 ± 190 ng/mL | concentration at 1440 min ([2]; 1440 min after single oral dose of 200 mg/kg of the anxiolytic fraction): 3790 ± 280 ng/mL | ka smaller than the ka of DOPAC ([3]; mouse, in vivo): 79% | AUC(0-inf) [3, 7]: 124000 ng·h/mL | Cmax [3, 7]: 5760 ng/mL | Tmax [3, 7]: 0.235 h | AUC(0-t) ([3]; mouse, oral 200 mg/kg anxiolytic fraction, ICR mice plasma, two-compartment model, read-out: AUC0→1440 (converted)): 61400 ng·h/mL | MRT ([3]; mouse, oral 200 mg/kg anxiolytic fraction, ICR mice plasma, two-compartment model, read-out: MRT (mean residence time) (converted)): 35.4 h | k el ([3]; mouse, oral 200 mg/kg anxiolytic fraction, ICR mice plasma, two-compartment model, read-out: k10 (apparent first-order elimination rate constant from the central compartment) (converted)): 1.5e-05 s⁻¹ | half-life ([3]; mouse, oral 200 mg/kg anxiolytic fraction, ICR mice plasma, two-compartment model, read-out: t1/2β): 25 h | CL/F (apparent clearance) [3, 8]: 0.026 (mg/Kg)/(μg/mL)/min | V/F (apparent volume of distribution) [3, 8]: 30.45 (mg/Kg)/(µg/mL) | k12 (transfer rate constant central to peripheral compartment) [3, 8]: 0.009 min⁻¹ | k21 (transfer rate constant peripheral to central compartment) [3, 8]: 0.01 min⁻¹ | ka (apparent first-order absorption rate constant) [3, 8]: 0.24 min⁻¹ | t1/2ka (absorption half time) [3, 8]: 2.84 min | t1/2α [3, 8]: 0.5847 h | α [3, 8]: 0.02 min⁻¹ | β [3, 8]: 0.0005 min⁻¹ | A (plasma concentration coefficient, central compartment) [3, 9]: 3.49 µg/mL | B (plasma concentration coefficient, peripheral compartment) [3, 9]: 3.36 µg/mL | index: relation between rate constants of k12 with respect to k21 ([3]; two-compartment model): 0.9
Compound: O=C(O)Cc1cccc(O)c1 [m-HPAA, meta-hydroxyphenylacetic acid]
